Reference: PubChem BioAssay (NCI)
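In this assay, cells in 96-well plates receive the compound at five concentrations for 48 hours. Endpoints are linearly interpolated between the surrounding concentrations. TGI is the concentration that stops growth completely.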

Assays:
Test in all cases: NCI tumour cell line growth inhibition, 48 h
[1] = system: MOLT-4 leukemia
[2] = system: COLO 205 colon
[3] = system: IGROV1 ovarian
[4] = system: DMS 273 small cell lung
[5] = system: UACC-257 melanoma
[6] = system: HCT-116 colon
[7] = system: SK-MEL-2 melanoma
[8] = system: SNB-19 CNS
[9] = system: KM12 colon
[10] = system: HOP-62 NSCLC
[11] = system: SF-539 CNS
[12] = system: OVCAR-5 ovarian
[13] = system: XF 498 CNS
[14] = system: SN12C renal
[15] = system: SNB-78 CNS
[16] = system: U251 CNS
[17] = system: RPMI-8226 leukemia
[18] = system: A498 renal
[19] = system: HL-60(TB) leukemia
[20] = system: HCC-2998 colon
[21] = system: HOP-92 NSCLC
[22] = system: DLD-1 colon
[23] = system: UACC-62 melanoma
[24] = system: SK-MEL-5 melanoma
[25] = system: HCT-15 colon
[26] = system: MALME-3M melanoma
[27] = system: NCI-H460 lung
[28] = system: CCRF-CEM leukemia
[29] = system: SK-OV-3 ovarian
[30] = system: OVCAR-8 ovarian
[31] = system: EKVX NSCLC
[32] = system: RXF 393 renal
[33] = system: K-562 leukemia
[34] = system: SW-620 colon
[35] = system: NCI/ADR-RES ovarian
[36] = system: SNB-75 CNS
[37] = system: NCI-H522 lung
[38] = system: CAKI-1 renal
[39] = system: SN12K1 renal
[40] = system: HOP-18 NSCLC
[41] = system: SK-MEL-28 melanoma
[42] = system: OVCAR-3 ovarian
[43] = system: P388 leukemia
[44] = system: OVCAR-4 ovarian
[45] = system: SF-295 CNS
[46] = system: SF-268 CNS
[47] = system: NCI-H23 lung
[48] = system: NCI-H226 lung
[49] = system: HT29 colon
[50] = system: A549 NSCLC
[51] = system: UO-31 renal
[52] = system: MCF7 breast
[53] = system: KM20L2 colon
[54] = system: M19-MEL melanoma
[55] = system: DMS 114 small cell lung
[56] = system: LOX IMVI melanoma
[57] = system: P388/ADR leukemia

Measured: TGI

CCOC(=O)c1c(C)c2c(n1C)CCc1cn[nH]c1-2
> 31.6 µM: [57]
> 100 µM: all other assays above
